These compounds were tested against PI3K β (Homo sapiens, UniProt P42338) (assay: PI 3-Kinase (human) HTRF assay, PI3K β). Details: read-out: PI3K β IC50; Table 2.
Sequence of PI3K β (P42338 whole entry): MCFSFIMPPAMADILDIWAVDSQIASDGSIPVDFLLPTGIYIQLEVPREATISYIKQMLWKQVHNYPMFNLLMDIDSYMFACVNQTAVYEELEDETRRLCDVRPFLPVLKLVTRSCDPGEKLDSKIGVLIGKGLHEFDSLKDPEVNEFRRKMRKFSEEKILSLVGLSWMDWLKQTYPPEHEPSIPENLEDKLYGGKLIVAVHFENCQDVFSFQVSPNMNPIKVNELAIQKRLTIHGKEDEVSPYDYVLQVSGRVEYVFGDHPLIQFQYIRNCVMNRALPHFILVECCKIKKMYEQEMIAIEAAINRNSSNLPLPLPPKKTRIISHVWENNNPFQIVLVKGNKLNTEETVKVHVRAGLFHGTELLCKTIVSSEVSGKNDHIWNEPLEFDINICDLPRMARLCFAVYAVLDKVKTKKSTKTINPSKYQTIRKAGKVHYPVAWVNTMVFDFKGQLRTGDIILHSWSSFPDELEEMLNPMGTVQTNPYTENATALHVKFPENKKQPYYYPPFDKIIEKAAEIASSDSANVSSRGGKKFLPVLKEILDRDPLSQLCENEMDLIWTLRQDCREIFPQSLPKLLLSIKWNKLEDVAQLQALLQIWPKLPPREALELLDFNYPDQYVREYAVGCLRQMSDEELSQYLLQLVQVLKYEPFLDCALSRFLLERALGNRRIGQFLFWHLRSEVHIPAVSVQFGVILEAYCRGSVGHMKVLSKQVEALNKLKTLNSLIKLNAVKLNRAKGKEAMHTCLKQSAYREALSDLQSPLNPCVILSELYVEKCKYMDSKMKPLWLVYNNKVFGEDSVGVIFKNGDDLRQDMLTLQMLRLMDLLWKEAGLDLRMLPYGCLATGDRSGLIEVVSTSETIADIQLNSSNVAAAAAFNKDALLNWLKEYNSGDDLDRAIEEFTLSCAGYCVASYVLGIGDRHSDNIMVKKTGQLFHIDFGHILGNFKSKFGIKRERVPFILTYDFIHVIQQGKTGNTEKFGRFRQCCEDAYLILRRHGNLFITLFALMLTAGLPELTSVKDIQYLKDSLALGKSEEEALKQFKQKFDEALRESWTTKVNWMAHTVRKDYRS
Sequence of PI3K β (P27986 whole entry partner): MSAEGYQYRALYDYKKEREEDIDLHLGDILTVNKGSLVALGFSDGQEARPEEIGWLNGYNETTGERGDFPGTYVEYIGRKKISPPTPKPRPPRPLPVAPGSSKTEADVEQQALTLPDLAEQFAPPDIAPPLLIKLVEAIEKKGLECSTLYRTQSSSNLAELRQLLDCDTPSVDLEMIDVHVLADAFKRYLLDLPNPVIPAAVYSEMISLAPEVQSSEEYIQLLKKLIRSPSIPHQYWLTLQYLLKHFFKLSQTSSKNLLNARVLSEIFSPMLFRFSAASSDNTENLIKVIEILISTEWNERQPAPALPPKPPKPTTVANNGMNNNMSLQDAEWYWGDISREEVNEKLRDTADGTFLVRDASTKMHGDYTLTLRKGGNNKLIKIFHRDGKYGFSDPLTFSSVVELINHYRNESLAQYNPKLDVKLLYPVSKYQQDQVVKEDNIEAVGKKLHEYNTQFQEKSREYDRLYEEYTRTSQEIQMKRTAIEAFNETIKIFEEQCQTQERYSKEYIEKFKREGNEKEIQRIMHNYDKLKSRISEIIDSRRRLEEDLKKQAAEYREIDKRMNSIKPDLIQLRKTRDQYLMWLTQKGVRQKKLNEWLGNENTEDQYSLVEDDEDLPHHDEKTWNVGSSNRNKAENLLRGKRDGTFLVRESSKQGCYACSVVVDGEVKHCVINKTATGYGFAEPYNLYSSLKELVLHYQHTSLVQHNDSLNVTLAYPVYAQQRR

Row | SMILES | IC50
1 | CC(=O)N1CCC(n2nc(-c3cc4ccc(O)cc4[nH]3)c3c(N)ncnc32)CC1 [Compound 65] | > 500 nM
2 | COc1cc(Cl)c2[nH]c(-c3nn(C4CCOCC4)c4ncnc(N)c34)cc2c1 [Compound 67] | > 500 nM
3 | Nc1ncnc2c1c(-c1cc3cc(O)ccc3[nH]1)nn2C1CC(N2CCOCC2)C1 (stereo not drawn) [Compound 49] | > 500 nM
4 | Nc1ncnc2c1c(-c1cc3cccc(Cl)c3[nH]1)nn2C1CCOCC1 [Compound 51] | > 500 nM
5 | Nc1ncnc2c1c(-c1cc3cccc(O)c3[nH]1)nn2C1CCOCC1 [Compound 62] | > 500 nM
6 | COc1cccc2cc(-c3nn(C4CCN(C(=O)C5CC5)CC4)c4ncnc(N)c34)[nH]c12 [Compound 66] | > 500 nM

Same assay, conditions: read-out: PI3K β IC50; Table 4

Row | SMILES | IC50
7 | CN1CC2CN(c3cnc4ccc(-c5ccc6oc(N)nc6c5)nc4n3)CC2C1 (stereo not drawn) [Compound 629] | < 1000 nM
8 | Nc1nc2cc(-c3ccc4ncc(N5C6CCC5COC6)nc4n3)ccc2o1 [Compound 570] | > 10000 nM
9 | CN1CC2CN(c3cnc4ccc(-c5ccc6oc(N)nc6c5)nc4c3)CC2C1 (stereo not drawn) [Compound 630] | < 1000 nM

What follows are compounds tested against T1, mTOR (Homo sapiens, UniProt P42345) (assay: mTOR kinase inhibition assay (radiometric or LanthaScreen TR-FRET)). Details: Table 2; read-out: mTORC IC50.
T1 construct: purchased Invitrogen
Format: biochemical

Row | SMILES | IC50
10 | CC(=O)N1CCC(n2nc(-c3cc4ccc(O)cc4[nH]3)c3c(N)ncnc32)CC1 [Compound 65] | < 10 nM
11 | COc1cc(Cl)c2[nH]c(-c3nn(C4CCOCC4)c4ncnc(N)c34)cc2c1 [Compound 67] | > 500 nM
12 | Nc1ncnc2c1c(-c1cc3cc(O)ccc3[nH]1)nn2C1CC(N2CCOCC2)C1 (stereo not drawn) [Compound 49] | < 10 nM
13 | Nc1ncnc2c1c(-c1cc3cccc(Cl)c3[nH]1)nn2C1CCOCC1 [Compound 51] | < 50 nM
14 | Nc1ncnc2c1c(-c1cc3cccc(O)c3[nH]1)nn2C1CCOCC1 [Compound 62] | < 5 nM
15 | COc1cccc2cc(-c3nn(C4CCN(C(=O)C5CC5)CC4)c4ncnc(N)c34)[nH]c12 [Compound 66] | > 500 nM

Same assay, conditions: Table 4; read-out: mTORC IC50

Row | SMILES | IC50
16 | CN1CC2CN(c3cnc4ccc(-c5ccc6oc(N)nc6c5)nc4n3)CC2C1 (stereo not drawn) [Compound 629] | > 10000 nM
17 | Nc1nc2cc(-c3ccc4ncc(N5C6CCC5COC6)nc4n3)ccc2o1 [Compound 570] | > 10000 nM
18 | CN1CC2CN(c3cnc4ccc(-c5ccc6oc(N)nc6c5)nc4c3)CC2C1 (stereo not drawn) [Compound 630] | > 10000 nM

What follows are compounds tested against PI3K δ (Homo sapiens, UniProt O00329) (assay: PI 3-Kinase (human) HTRF assay, PI3K δ). Details: read-out: PI3K δ IC50.
Sequence of PI3K δ (O00329 whole entry): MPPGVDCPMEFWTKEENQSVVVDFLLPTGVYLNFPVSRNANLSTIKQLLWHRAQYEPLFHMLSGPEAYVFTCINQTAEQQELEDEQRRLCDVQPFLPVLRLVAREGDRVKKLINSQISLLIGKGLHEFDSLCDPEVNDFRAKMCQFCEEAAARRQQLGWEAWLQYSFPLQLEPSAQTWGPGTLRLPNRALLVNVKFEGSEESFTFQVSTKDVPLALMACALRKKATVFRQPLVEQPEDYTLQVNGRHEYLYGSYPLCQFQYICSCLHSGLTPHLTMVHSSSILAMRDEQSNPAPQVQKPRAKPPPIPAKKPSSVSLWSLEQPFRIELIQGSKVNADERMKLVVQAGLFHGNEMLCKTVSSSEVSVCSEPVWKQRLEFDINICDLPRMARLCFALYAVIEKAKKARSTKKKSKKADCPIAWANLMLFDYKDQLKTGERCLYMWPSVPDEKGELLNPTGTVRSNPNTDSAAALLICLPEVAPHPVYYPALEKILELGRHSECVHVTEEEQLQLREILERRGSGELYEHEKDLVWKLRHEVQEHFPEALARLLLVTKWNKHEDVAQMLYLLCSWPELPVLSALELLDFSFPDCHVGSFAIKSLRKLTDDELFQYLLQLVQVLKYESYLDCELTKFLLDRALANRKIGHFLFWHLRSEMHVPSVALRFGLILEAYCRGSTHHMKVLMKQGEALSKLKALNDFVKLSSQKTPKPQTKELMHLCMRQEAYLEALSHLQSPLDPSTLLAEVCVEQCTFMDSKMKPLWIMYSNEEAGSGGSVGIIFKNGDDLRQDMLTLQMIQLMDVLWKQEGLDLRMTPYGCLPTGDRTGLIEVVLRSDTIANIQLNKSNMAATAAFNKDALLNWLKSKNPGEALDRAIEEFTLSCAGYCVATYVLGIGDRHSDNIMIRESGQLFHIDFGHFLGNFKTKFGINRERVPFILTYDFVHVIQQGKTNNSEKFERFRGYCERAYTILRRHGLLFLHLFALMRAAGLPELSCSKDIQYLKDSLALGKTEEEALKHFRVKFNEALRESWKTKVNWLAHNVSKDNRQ
Sequence of PI3K δ (P27986 whole entry partner): as the sequence (P27986 whole entry partner) above

Row | SMILES | IC50
19 | CC(=O)N1CCC(n2nc(-c3cc4ccc(O)cc4[nH]3)c3c(N)ncnc32)CC1 [Compound 65] | 10 to 25 nM
20 | Nc1nc2cc(-c3ccc4ncc(N5C6CCC5COC6)nc4n3)ccc2o1 [Compound 570] | > 10000 nM
21 | Nc1ncnc2c1c(-c1cc3cc(O)ccc3[nH]1)nn2C1CC(N2CCOCC2)C1 (stereo not drawn) [Compound 49] | 100 to 500 nM
22 | COc1cccc2cc(-c3nn(C4CCN(C(=O)C5CC5)CC4)c4ncnc(N)c34)[nH]c12 [Compound 66] | > 500 nM

Same assay, conditions: read-out: PI3K δ IC50; Table 2

Row | SMILES | IC50
23 | COc1cc(Cl)c2[nH]c(-c3nn(C4CCOCC4)c4ncnc(N)c34)cc2c1 [Compound 67] | > 500 nM
24 | Nc1ncnc2c1c(-c1cc3cccc(Cl)c3[nH]1)nn2C1CCOCC1 [Compound 51] | 100 to 500 nM
25 | Nc1ncnc2c1c(-c1cc3cccc(O)c3[nH]1)nn2C1CCOCC1 [Compound 62] | 50 to 100 nM

Same assay, conditions: read-out: PI3K δ IC50; Table 4

Row | SMILES | IC50
26 | CN1CC2CN(c3cnc4ccc(-c5ccc6oc(N)nc6c5)nc4n3)CC2C1 (stereo not drawn) [Compound 629] | < 1000 nM
27 | CN1CC2CN(c3cnc4ccc(-c5ccc6oc(N)nc6c5)nc4c3)CC2C1 (stereo not drawn) [Compound 630] | < 1000 nM

Same assay, conditions: read-out: PI3K δ IC50; in vitro

Row | IC50 | SMILES
28 | < 10000 nM | Nc1nc2cc(-c3ccc4ncc(C(=O)N5CC(N6CC[C@@H](O)C6)C5)n4c3)ccc2o1 [Compound 470]

What follows are compounds tested on PC3 (assay: PC3 proliferation (Alamar Blue)). Details: Homo sapiens, PC-3; PC3 cells.
Format: cell-based

Row | IC50 | SMILES
29 | < 1000 nM | COC1CN(C(=O)c2cnc3ccc(-c4ccc5oc(N)nc5c4)cn23)C1 [Compound 467]
30 | < 10000 nM | Nc1nc2cc(-c3ccc4ncc(C(=O)N5CC(N6CC[C@@H](O)C6)C5)n4c3)ccc2o1 [Compound 470]

Each compound was assayed against PI3K α (Homo sapiens, UniProt P42336) (assay: PI 3-Kinase (human) HTRF assay, PI3K α). Details: read-out: PI3K α IC50.
Sequence of PI3K α (P42336 whole entry): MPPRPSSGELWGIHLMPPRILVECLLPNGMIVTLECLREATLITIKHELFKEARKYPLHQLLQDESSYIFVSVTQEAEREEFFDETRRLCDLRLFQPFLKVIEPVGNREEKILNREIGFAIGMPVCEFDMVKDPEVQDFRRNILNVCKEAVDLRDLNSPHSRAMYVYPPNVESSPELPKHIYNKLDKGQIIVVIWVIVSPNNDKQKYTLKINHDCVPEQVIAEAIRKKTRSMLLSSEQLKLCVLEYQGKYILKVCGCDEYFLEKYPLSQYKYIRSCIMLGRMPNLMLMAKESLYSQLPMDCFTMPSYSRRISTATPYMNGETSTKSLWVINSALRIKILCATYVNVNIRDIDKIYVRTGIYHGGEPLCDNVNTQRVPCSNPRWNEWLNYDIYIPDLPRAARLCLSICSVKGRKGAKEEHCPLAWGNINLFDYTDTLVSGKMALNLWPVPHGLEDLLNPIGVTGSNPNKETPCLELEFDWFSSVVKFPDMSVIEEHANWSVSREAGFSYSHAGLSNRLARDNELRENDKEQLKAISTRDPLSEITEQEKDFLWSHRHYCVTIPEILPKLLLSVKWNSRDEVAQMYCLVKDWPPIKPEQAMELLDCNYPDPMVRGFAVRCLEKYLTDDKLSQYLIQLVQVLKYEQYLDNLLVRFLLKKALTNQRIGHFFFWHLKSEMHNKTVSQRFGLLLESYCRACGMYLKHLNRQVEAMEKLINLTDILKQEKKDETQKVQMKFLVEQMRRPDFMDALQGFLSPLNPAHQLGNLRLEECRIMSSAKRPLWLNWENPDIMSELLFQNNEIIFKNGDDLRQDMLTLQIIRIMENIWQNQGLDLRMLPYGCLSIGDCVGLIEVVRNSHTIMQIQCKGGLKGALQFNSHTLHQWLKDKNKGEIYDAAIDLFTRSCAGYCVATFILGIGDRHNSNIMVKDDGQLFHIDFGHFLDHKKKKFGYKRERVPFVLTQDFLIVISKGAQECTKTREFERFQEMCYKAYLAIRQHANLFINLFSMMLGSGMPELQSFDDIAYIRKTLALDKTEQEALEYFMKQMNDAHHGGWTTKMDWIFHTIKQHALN
Sequence of PI3K α (P27986 whole entry partner): as the sequence (P27986 whole entry partner) above

Row | SMILES | IC50
31 | CC(=O)N1CCC(n2nc(-c3cc4ccc(O)cc4[nH]3)c3c(N)ncnc32)CC1 [Compound 65] | 25 to 50 nM
32 | Nc1ncnc2c1c(-c1cc3cc(O)ccc3[nH]1)nn2C1CC(N2CCOCC2)C1 (stereo not drawn) [Compound 49] | > 500 nM
33 | Nc1ncnc2c1c(-c1cc3cccc(Cl)c3[nH]1)nn2C1CCOCC1 [Compound 51] | > 500 nM

Same assay, conditions: read-out: PI3K α IC50; Table 2

Row | SMILES | IC50
34 | COc1cc(Cl)c2[nH]c(-c3nn(C4CCOCC4)c4ncnc(N)c34)cc2c1 [Compound 67] | > 500 nM
35 | Nc1ncnc2c1c(-c1cc3cccc(O)c3[nH]1)nn2C1CCOCC1 [Compound 62] | > 500 nM
36 | COc1cccc2cc(-c3nn(C4CCN(C(=O)C5CC5)CC4)c4ncnc(N)c34)[nH]c12 [Compound 66] | > 500 nM

Same assay, conditions: read-out: PI3K α IC50; Table 4

Row | SMILES | IC50
37 | CN1CC2CN(c3cnc4ccc(-c5ccc6oc(N)nc6c5)nc4n3)CC2C1 (stereo not drawn) [Compound 629] | < 100 nM
38 | Nc1nc2cc(-c3ccc4ncc(N5C6CCC5COC6)nc4n3)ccc2o1 [Compound 570] | < 100 nM
39 | CN1CC2CN(c3cnc4ccc(-c5ccc6oc(N)nc6c5)nc4c3)CC2C1 (stereo not drawn) [Compound 630] | < 100 nM

The compounds below were run against PI3K γ (Homo sapiens, UniProt P48736) (assay: PI 3-Kinase (human) HTRF assay, PI3K γ). Details: read-out: PI3K γ IC50; Table 2.
Sequence of PI3K γ (P48736 whole entry): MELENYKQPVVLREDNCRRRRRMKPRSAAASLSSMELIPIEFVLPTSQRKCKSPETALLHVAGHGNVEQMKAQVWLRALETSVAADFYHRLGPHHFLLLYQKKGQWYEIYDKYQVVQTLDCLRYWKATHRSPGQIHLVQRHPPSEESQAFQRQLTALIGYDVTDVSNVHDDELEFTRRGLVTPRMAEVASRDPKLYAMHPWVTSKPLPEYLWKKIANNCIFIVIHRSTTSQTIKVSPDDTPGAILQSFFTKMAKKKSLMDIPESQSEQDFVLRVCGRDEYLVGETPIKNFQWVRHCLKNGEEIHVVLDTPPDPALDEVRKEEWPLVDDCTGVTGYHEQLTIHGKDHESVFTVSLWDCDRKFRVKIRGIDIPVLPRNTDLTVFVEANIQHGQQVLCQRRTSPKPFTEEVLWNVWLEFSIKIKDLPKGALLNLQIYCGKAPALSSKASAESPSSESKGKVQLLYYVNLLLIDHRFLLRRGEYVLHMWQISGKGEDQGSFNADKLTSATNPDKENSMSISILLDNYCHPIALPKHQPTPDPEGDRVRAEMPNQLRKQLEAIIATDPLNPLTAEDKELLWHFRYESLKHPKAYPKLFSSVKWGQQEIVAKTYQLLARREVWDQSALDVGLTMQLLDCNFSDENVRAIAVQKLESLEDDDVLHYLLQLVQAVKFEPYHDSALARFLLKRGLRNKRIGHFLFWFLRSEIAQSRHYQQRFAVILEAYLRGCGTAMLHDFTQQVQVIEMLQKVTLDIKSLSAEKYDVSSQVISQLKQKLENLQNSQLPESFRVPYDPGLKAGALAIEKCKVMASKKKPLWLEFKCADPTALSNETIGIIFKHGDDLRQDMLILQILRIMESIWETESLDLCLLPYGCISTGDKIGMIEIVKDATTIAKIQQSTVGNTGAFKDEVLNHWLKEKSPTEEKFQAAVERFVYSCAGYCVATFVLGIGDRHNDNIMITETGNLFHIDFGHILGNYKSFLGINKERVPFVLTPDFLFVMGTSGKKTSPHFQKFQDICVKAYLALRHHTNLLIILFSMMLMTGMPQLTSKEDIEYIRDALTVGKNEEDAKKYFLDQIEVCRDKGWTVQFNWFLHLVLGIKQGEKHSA

Row | SMILES | IC50
40 | CC(=O)N1CCC(n2nc(-c3cc4ccc(O)cc4[nH]3)c3c(N)ncnc32)CC1 [Compound 65] | 10 to 25 nM
41 | COc1cc(Cl)c2[nH]c(-c3nn(C4CCOCC4)c4ncnc(N)c34)cc2c1 [Compound 67] | > 500 nM
42 | Nc1ncnc2c1c(-c1cc3cc(O)ccc3[nH]1)nn2C1CC(N2CCOCC2)C1 (stereo not drawn) [Compound 49] | 100 to 500 nM
43 | Nc1ncnc2c1c(-c1cc3cccc(Cl)c3[nH]1)nn2C1CCOCC1 [Compound 51] | 100 to 500 nM
44 | Nc1ncnc2c1c(-c1cc3cccc(O)c3[nH]1)nn2C1CCOCC1 [Compound 62] | > 500 nM
45 | COc1cccc2cc(-c3nn(C4CCN(C(=O)C5CC5)CC4)c4ncnc(N)c34)[nH]c12 [Compound 66] | > 500 nM

Same assay, conditions: read-out: PI3K γ IC50; Table 4

Row | SMILES | IC50
46 | CN1CC2CN(c3cnc4ccc(-c5ccc6oc(N)nc6c5)nc4n3)CC2C1 (stereo not drawn) [Compound 629] | < 10000 nM
47 | Nc1nc2cc(-c3ccc4ncc(N5C6CCC5COC6)nc4n3)ccc2o1 [Compound 570] | < 100 nM
48 | CN1CC2CN(c3cnc4ccc(-c5ccc6oc(N)nc6c5)nc4c3)CC2C1 (stereo not drawn) [Compound 630] | < 1000 nM

— patent US9295673B2, “Combination of mTOR inhibitors and P13-kinase inhibitors, and uses thereof” (Intellikine LLC, priority 2011, dated 2016)
